Test results from US8802137B2, “Sustained release of antiinfectives” (Insmed Incorporated, priority 2002, dated 2014).
Like-named read-outs stand apart in the source and are kept apart here.

How the values were obtained:
rat alveolar macrophages = conditions: in vivo
Source text: The basal and stimulated functions of rat alveolar macrophages obtained by lavage were studied with and without administration of liposomal amikacin formulations and compared to various controls.

[1] = Clinical chemical assay (TDX) of aminoglycoside content in tissue of treated infected rats; format: in vivo; conditions: Sprague-Dawley, other: intratracheal (IT), 10 mg/rat
Protocol: […] The clinical chemical assay was performed using a TDX instrument while the bioassay was performed by measuring inhibition zones on agar plates embedded with Bacillus subtilis.

[2] = Bioavailability of amikacin from inhaled liposomal amikacin formulations: lung homogenate levels; conditions: CD IGS, rat, in vivo, 5 mg/kg
P. aeruginosa PA01 = assay: In vitro release and activity in Slide-A-Lyzer cartridges, CFU after 24 hrs; format: cell-based; conditions: amikacin 50 μg/mL, preliminary experiments
Protocol: An in vitro test of release and activity was performed under conditions similar to the pharmacokinetics in the lung, where it has been previously shown that free antibiotic is cleared on the time scale of a few hours. […] Free drug dialyzes out of the cartridges on the time scale of hours under these conditions. After 24 hrs., the samples were withdrawn from the cartridges and plated to measure CFU.

[3] = design: species or system rats; conditions: rat, in vivo
Protocol: The binding of aminoglycosides to sputum of CF patients is a concern, particularly if this binding reduces the bioactivity of the antiinfective (Hunt et al., 1995). To determine whether liposomal formulations of amikacin can retain biological activity over a prolonged period of time, normal rats were administered liposomal formulations of amikacin by intratracheal instillation. This was followed by its removal at 2 or 24 hours via a bronchial alveolar lavage (BAL) to determine biological activity. […] Amikacin concentration was determined employing a TDX instrument and biological activity determined using a Mueller Hinton broth dilution assay (Pseudomonas aeruginosa).

[4] = mouse, in vivo, po, 15 mg/kg
[5] = lung homogenate, homogenized rat lungs following the 14 day experiment, read-out: Clinical Assay

Compound	inflammatory response in the lungs (nitrates and TNF-α in BALF) (rat alveolar macrophages)	concentration at 14 day [1, 5]	concentration at 24 h [2]	reduction of CFUs (P. aeruginosa PA01)	concentration at 14 day ([1]; rat, kidney, kidneys, following the 14 day experiment, read-out: detectable levels of aminoglycoside in the kidneys)	drug in a BAL [3]	detectability of drug in the lung over time [4]
NCC[C@H](O)C(=O)N[C@@H]1C[C@H](N)[C@@H](O[C@H]2O[C@H](CN)[C@@H](O)[C@H](O)[C@H]2O)[C@H](O)[C@H]1O[C@H]1O[C@H](CO)[C@@H](O)[C@H](N)[C@H]1O [Free amikacin, amikacin]	did not produce a significant acute or delayed inflammatory response	2000 ng/mL	~500000 ng/g	only slightly reduced the CFU			
NC[C@H]1O[C@H](O[C@H]2[C@H](O)[C@@H](O[C@H]3O[C@H](CO)[C@@H](O)[C@H](N)[C@H]3O)[C@H](N)C[C@@H]2N)[C@H](N)C[C@@H]1O [Free tobramycin, tobramycin]		1400 ng/mL			100 ng/mL	undetectable	
O=C(O)c1cn(C2CC2)c2cc(N3CCNCC3)c(F)cc2c1=O [free ciprofloxacin, ciprofloxacin]							undetectable in less than two hours
